Measurements from patent publication US20120095012A1, “TOLUIDINE SULFONAMIDES AND THEIR USE” (Elara Pharmaceuticals GmbH, priority 2008, published 2012).

Columns and labels:
[1] = system: MCF-7 human breast adenocarcinoma cells; HRE-bla HCT116 cell line (colorectal carcinoma); assay: Cell proliferation assay (ATPlite luminescence); assay type: cell-based; conditions: Homo sapiens, ATPlite readout, cell line not given
Procedure: MCF-7 human breast adenocarcinoma cells were obtained from ATCC (LGC Promochem). The CellSensor® HRE-bla HCT116 cell line (colorectal carcinoma) was obtained from Invitrogen.
Cells were grown under humidified 95% air, 5% CO2 at 37° C. in Dulbecco's modified Eagle's medium (DMEM: MCF-7) or McCoy's 5A medium (HRE-bla HCT116) supplemented with 10% fetal bovine serum (FBS), 100 U/ml penicillin and 100 μg/ml streptomycin, 2 mM L-glutamine, and blasticidin at 5 μg/ml as a selection marker (for the HRE-bla HCT116 cell line only).
Cell proliferation experiments were carried out in 96-well tissue culture plates with seeding of 2000 cells/well in 100 μl of the relevant medium. Cells were subsequently incubated under the conditions mentioned for 24 h prior to addition of compounds.
To determine the degree of inhibition of cell proliferation, cells were treated with ATPlite solution according to the manufacturer's instructions (PerkinElmer, ATPlite 1-step Luminescence ATP Detection Assay System) and luciferase readout measured on an Envision HTS multilabel plate reader (PerkinElmer) in luminescence mode according to established protocols. Raw data were imported into an ActivityBase database (IDBS, ID Business Solutions) and EC50 values calculated using the IDBS program ActivityBase XE.

[2] = target: T1, tubulin (from porcine brain) (Sus scrofa, UniProt P02550+P02554); assay: Inhibition of in vitro tubulin polymerization (OD 340 nm, 90 min); assay type: biochemical; conditions: final absorbance at 90 min vs vehicle control, read-out: tubulin inhib. (at 10 μM)
T1 construct: prepared in-house from porcine brain using a standard procedure involving cycles of polymerization/de-polymerization; from tissue; host or cells: porcine brain
T1 sequence (P02550 whole entry): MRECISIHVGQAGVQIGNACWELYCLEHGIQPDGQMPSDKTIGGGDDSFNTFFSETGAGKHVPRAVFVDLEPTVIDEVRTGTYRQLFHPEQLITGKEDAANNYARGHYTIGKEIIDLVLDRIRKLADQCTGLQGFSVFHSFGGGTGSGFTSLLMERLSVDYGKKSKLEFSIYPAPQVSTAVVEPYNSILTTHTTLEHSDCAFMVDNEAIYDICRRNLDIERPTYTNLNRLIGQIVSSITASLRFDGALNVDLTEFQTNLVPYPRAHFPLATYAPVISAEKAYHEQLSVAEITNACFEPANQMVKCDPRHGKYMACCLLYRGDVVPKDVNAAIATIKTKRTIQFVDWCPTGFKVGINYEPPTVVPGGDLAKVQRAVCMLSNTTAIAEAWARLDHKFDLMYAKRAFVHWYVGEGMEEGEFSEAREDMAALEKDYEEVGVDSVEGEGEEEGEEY
T1 sequence (P02554 whole entry): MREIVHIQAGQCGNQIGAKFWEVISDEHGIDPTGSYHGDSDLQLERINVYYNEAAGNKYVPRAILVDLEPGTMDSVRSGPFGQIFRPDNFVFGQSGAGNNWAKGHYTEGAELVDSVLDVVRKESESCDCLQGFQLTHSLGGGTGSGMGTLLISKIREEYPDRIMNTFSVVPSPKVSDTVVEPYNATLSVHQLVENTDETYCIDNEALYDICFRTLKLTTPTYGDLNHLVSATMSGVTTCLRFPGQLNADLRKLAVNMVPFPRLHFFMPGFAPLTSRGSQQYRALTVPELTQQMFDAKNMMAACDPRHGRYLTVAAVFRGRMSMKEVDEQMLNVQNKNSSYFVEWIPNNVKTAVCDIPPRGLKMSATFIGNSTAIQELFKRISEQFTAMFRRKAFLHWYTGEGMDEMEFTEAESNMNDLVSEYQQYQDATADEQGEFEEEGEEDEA
Procedure: To assess the degree of inhibition of in vitro tubulin polymerization, a tubulin solution (prepared in-house from porcine brain using a standard procedure involving cycles of polymerization/de-polymerization, (see Castoldi & Popov (2003) Protein Expr. Purif. 32(1): 83-88), was incubated with varying concentrations of compounds under polymerizing conditions and kinetic experiments performed to determine the amount of polymerization (as measured by changes in OD at 340 nm) taking place over a 90 min period.
Compound solutions were diluted in double-distilled water to yield final 10× solutions containing 5% DMSO. 5 μl solutions were then added to the wells on a 384-well clear-bottom plate (Corning #3711, Corning Inc.) in preparation for the addition of tubulin. The tubulin solution (19.6 mg/ml, in 80 mM K-PIPES [pH 6.8], 1 mM MgCl2, 1 mM EGTA) was re-suspended to a final concentration of 4 mg/ml with ice cold G-PEM buffer (80 mM PIPES [pH 6.8], 2 mM MgCl2, 0.5 mM EGTA, 10% glycerol, 1 mM GTP) and maintained on ice for at least 1 min. 50 μl was then added to the pre-dispensed compound solutions, the plate orbital shaken on a medium setting for 5s, and the first measurement begun immediately.
Experiments were carried out on a Safire^2 ™ monochromator (Tecan) preset to a stable temperature of 37° C.; the degree of polymerization was determined by measuring the absorbance of the solutions at 340 nm every minute over the 90 min cycle. Reported inhibition values were based on the final absorbance at 90 min and calculated with reference to a vehicle control (0.5% DMSO) using the minimum and maximum signals obtained for this sample.

[3] = system: HIF mediated transcription; assay: Inhibition of activation of HIF mediated transcription under hypoxic conditions (CellSensor HRE-bla HCT-116 reporter, DFO-induced); assay type: cell-based; conditions: Homo sapiens; HRE-bla HCT-116 reporter cells, deferoxamine-induced hypoxia, 24 h
Procedure: Inhibition of an activated HIF signaling response under chemically-induced hypoxic conditions due to compound treatment was determined using the CellSensor® […] HCT-116 stably transfected reporter cell line from Invitrogen according to the manufacturer's instructions. HIF is a transcriptional factor composed of the constitutively expressed HIF 1β subunit and one of three HIFα subunits (HIF1α, HIF2α, HIF3α). This assay is responsive towards HIFα activity in general. In one example, HIF-1, when stabilized by hypoxic conditions, upregulates several genes to promote cell survival in low-oxygen conditions. These include glycolysis enzymes, which allow ATP synthesis in an oxygen-independent manner, and vascular endothelial growth factor (VEGF), which promotes angiogenesis. HIF-1 acts by binding to HIF-responsive elements (HREs) in promoters that generally contain the sequence NCGTG.
Cells were maintained as described previously and seeded into 384-well, clear-bottom plates (Corning 3712) at 15000 cells/well in 32 μl assay medium (Opti-MEM [Invitrogen], 0.5% FBS, 100 U/ml penicillin, 100 μg/ml streptomycin, 0.1 mM non-essential amino acids [NEAA], 1 mM sodium pyruvate, 5 mM HEPES [pH 7.3]). Following a 2 h incubation period, compounds (4 μl) were subsequently added to the cells at 10× concentrations in 5% DMSO and incubated under normal conditions for 30 min. To induce hypoxic conditions, 4 μl of a 2 mM deferoxamine (DFO) solution was added to the cells followed by 24 h incubation under standard assay conditions (as described). Control wells included wells containing only medium (no cells) and wells treated with 0.5% DMSO instead of compound.
Prior to the readout, the Substrate Loading Solution was prepared as described in the manufacturer's protocol and 10 μl added to each well. Following a further 2 h incubation period at room temperature and in the dark, fluorescence was measured at two wavelengths (blue channel: ex. 409 nm, em. 460 nm; green channel: ex. 409 nm, em. 530 nm) on a PerkinElmer Envision HTS. For the analysis, the average signal of the cell-free wells at 460 nm and 530 nm was first subtracted from the blue and green channel data, respectively. The blue/green emission ratios were then calculated for each well, dividing the background-corrected blue emission values by the background-corrected green emission values. IC50 values were determined from these ratios using GraphPad Prism (Prism 5, GraphPad software, Inc.).

Q: What does the source list for `CCc1ccc(S(=O)(=O)Nc2cc(-c3ccc(C#N)s3)ccc2C)s1` [Example 1, 5-Ethyl-thiophene-2-sulfonic acid [5-(5-cyano-thiophen-2-yl)-2-methyl-phenyl]-amide]?
A: EC50 [1]: < 500 nM; inhibition at 10 µM [2]: 20 to 50%; EC50 [3]: < 500 nM

Q: `COc1ccc(S(=O)(=O)Nc2cc(-c3ccc(C#N)s3)ccc2C)cn1` [Example 2, 6-Methoxy-pyridine-3-sulfonic acid [5-(5-cyano-thiophen-2-yl)-2-methyl-phenyl]-amide] was tested. Which EC50 [1] did it give?
A: < 500 nM

Q: What about the inhibition at 10 µM [2] of the same compound?
A: < 20%

Q: What about the EC50 [3] of the same compound?
A: < 500 nM
